From patent publication US20260130894A1, “COMPOSITION COMPRISING ISOQUINOLINE DERIVATIVE AS ACTIVE INGREDIENT FOR PREVENTION OR TREATMENT OF PARKINSON'S DISEASE” (ALTMEDICAL CO., LTD., priority 2022, published 2026)

Assays:
BEAS-2B cell line = assay: Mitophagy activity in BEAS-2B cells expressing mt-Keima (FACS, confocal microscope, mito-YFP); type: cell-based, human
Method: To analyze the mitophagy-promoting activity effect of the CD1-012 synthesized in the Example 1, the BEAS-2B cell line, which is a human normal lung cell line, was induced to express the mt-Keima fluorescent protein. Following this, the CD1-012 (15 μM) and the compound of Comparative Example 1, CCCP (10 μM), were treated for 24 hours. After the treatment, the mitophagy activity of each sample was measured, and the results were represented in FIGS. 1A to 1C.
Specifically, FIG. 1A represents the analysis results using flow cytometry (FACS) (treatment of CD1-012 at 15 μM for 24 hours), FIG. 1B represents the analysis results using a confocal microscope (treatment of CD1-012 at 15 μM for 18 hours), and FIG. 1C represents the measurement results of the quantitative changes in the mitochondria using a fluorescent protein, mito-YFP, which includes a targeting sequence to transport protein to the mitochondria (treatment of CD1-012 at 20 μM for 24 hours).
It was confirmed whether CD1-012 synthesized in Example 1 promotes mitophagy activity in a concentration- and time-dependent manner. To this end, the CD1-012 was treated at various concentrations or at a fixed concentration (15 μM) for different treatment durations in the BEAS-2B cell line expressing mt-Keima, and mitophagy activity was measured using a flow cytometer.
It was confirmed whether CD1-012 synthesized in Example 1 specifically increases only mitophagy activity. To this end, the BEAS-2B cell line expressing mt-Keima was treated with CD1-012 (15 μM) or Comparative Example 1 (CCCP, 10 μM) for 18 hours, and mitophagy activity was analyzed using a confocal microscope. Additionally, to measure autophagy activity, the BEAS-2B cell line expressing Keima fluorescent protein was incubated in Hanks' balanced salt solution (HBSS) for 3 hours to induce a starvation condition (starv.), and the results were compared with samples treated with CD1-012 (15 μM) for 18 hours using a confocal microscope.
To this end, the human normal lung cell line BEAS-2B, expressing mt-Keima fluorescent protein, was treated with CD1-012, Comparative Example 2 (palmatine), or Comparative Example 3 (berberine) at various concentrations, and the mitophagy-inducing activity of each sample was compared.

[1] = test system: mouse model of Parkinson's disease established by injecting MPTP; assay: Motor performance (pole test, Rota-rod test) in MPTP mouse model of Parkinson's disease; type: in vivo
Method: In this example, the effect of the compound of the present invention (CD1-012) on treating Parkinson's disease was confirmed using a mouse model of Parkinson's disease. To this end, a mouse model of Parkinson's disease established by injecting the neurotoxin, 1-methyl-4-phenyl-1,2,3,6-tetrahydropyridine (MPTP), was used. After nasal administration of CD1-012 at a concentration of 1 mg/kg daily for 2 weeks to the mouse model, motor performance was analyzed using the pole test and Rota-rod test (FIG. 11A).

[2] = test system: BEAS-2B cell line, in which PINK1 was knocked down; assay: Mitophagy activity in PINK1 knockdown (shPINK1) BEAS-2B cells (FACS); type: cell-based, human
From the text: In this example, it was confirmed whether the mitophagy activation function of the isoquinoline derivative according to the present invention is dependent on the PINK1-Parkin pathway. […]
In the following example, it was confirmed whether the novel isoquinoline derivative according to the present invention has a therapeutic effect of preventing or improving Parkinson's disease. Most of all, it was confirmed whether the treatment with the isoquinoline derivative improves mitochondrial dysfunction of a Parkinson's disease cell model. To this end, first, the induction of mitophagy by CD1-012 was verified. […] In addition, to analyze whether the mitophagy-promoting activity of CD1-012 is dependent on PINK1, PINK1 expression was inhibited (using shPNIK1) in BEAS-2B cells, which is a human normal lung cell line expressing a mitochondrial fluorescent protein, and mitophagy activity was analyzed by flow cytometry (FACS).

PINK1-deficient MEFs = assay: Mitochondrial function in PINK1-deficient MEFs (TMRM, MitoSOX-Red, ATP production); type: cell-based, mouse; conditions: 40 μM for 24 hours
Method: Subsequently, PINK1-deficient MEFs were treated with CD1-012 at a concentration of 40 μM for 24 hours, and 4 days later, mitochondrial function as analyzed. The mitochondrial membrane potential was analyzed by the tetramethyl rhodamine methyl ester (TMRM) assay, and mitochondrial ROS was analyzed using the MitoSOX-Red assay. […] Conversely, the level of mitochondrial ROS, which was elevated compared to the wild-type cells, was reduced by CD1-012 treatment (FIG. 8D).

[3] = test system: PINK1-deficient Drosophila (B9); assay: Mitochondrial function in Drosophila model of Parkinson's disease; type: in vivo
Method: In this example, to further verify the effect of the compound of the present invention (CD1-012) on improving mitochondrial dysfunction, a Drosophila model of Parkinson's disease was used. To this end, after administering CD1-012 to PINK1 gene-deficient Drosophila, mitochondrial function was analyzed. […] As a result, the number of damaged mitochondria (with abnormally swollen morphology) observed in the PINK1-deficient Drosophila was reduced in the CD1-012-treated group as compared to an untreated control (FIG. 9A). […] In addition, after 2 weeks of CD1-012 administration, it could be observed that the ATP production capacity of the brain tissue of the PINK11-deficient Drosophila was restored (FIG. 9C).

SH-SY5Y cell line = assay: Mitophagy activity in SH-SY5Y cells expressing mt-Keima (FACS); type: cell-based, human; conditions: FACS (FIG. 2A)
Method: It was confirmed whether CD1-012 synthesized in Example 1 increases mitophagy activity in various cell lines. To this end, CD1-012 and Comparative Example 1 (CCCP) were treated in the SH-SY5Y cell line, a human neuroblastoma cell line expressing mt-Keima fluorescent protein, and in the HeLa-Parkin cell line, a HeLa cervical cancer cell line expressing Parkin (E3 ligase). Following this treatment, the mitophagy activity of each sample was analyzed using flow cytometry (FACS), and the results are shown in FIGS. 2A to 2B.

[4] = test system: wild type (WT) and PINK1-deficient (PINK1−/−) mouse embryonic fibroblasts (MEFs); assay: Mitochondrial protein Cox2 level by western blotting in WT and PINK1-deficient MEFs; type: cell-based; conditions: 40 μM, 24 hours (FIG. 8A)

Compound: Oc1cc2c(cc1O)-c1cc3ccc(O)c(O)c3c[n+]1CC2 [CD1-012, 2,3,9,10-tetrahydroxy-5,6-dihydroisoquinolino[3,2-a]isoquinolin-7-ium bromide]
- treatment time after which mitophagy activity began to significantly increase (BEAS-2B cell line; 15 μM (FIG. 3B)): 3 h
- treatment time at which mitophagy activity reached its maximum level (BEAS-2B cell line; 15 μM (FIG. 3B)): 18 h
- concentration at which mitophagy activity reached a level comparable to the maximum of palmatine and berberine (BEAS-2B cell line; BEAS-2B mt-Keima (FIG. 5)): 10 µM
- mitophagy-inducing activity relative to berberine (BEAS-2B cell line; BEAS-2B mt-Keima (FIG. 5)): approximately 8 times
- mitophagy-inducing activity relative to palmatine (BEAS-2B cell line; BEAS-2B mt-Keima (FIG. 5)): approximately 40 times
- concentration at which mitophagy activity began to significantly increase compared to untreated control (BEAS-2B cell line; BEAS-2B mt-Keima, flow cytometer (FIG. 3A)): ≥ 7.5 µM
- mitophagy activity compared to the untreated control group (Con) (BEAS-2B cell line; BEAS-2B mt-Keima, 15 μM 24 h (FACS), 15 μM 18 h (confocal), 20 μM 24 h (mito-YFP)): significant increase in mitophagy activity
- mitophagy-promoting effect compared with CCCP (confocal microscope) (BEAS-2B cell line; CD1-012 15 μM, CCCP 10 μM, 18 hours (FIG. 4A)): mitophagy-promoting effects similar to those observed in the CCCP-treated sample
- mitophagy activity compared with CCCP-treated sample (FIG. 1A) (BEAS-2B cell line; FACS, CD1-012 15 μM, CCCP 10 μM, 24 hours): increased as significantly as that of the sample treated with the representative mitophagy promoting compound, CCCP
- concentration dependence of mitophagy activity (BEAS-2B cell line; up to the maximum treatment concentration of 17.5 μM (FIG. 3A)): continued to increase in a concentration-dependent manner
- pole test, motor performance (time to reach the ground) ([1]; MPTP mice, nasal 1 mg/kg daily for 2 weeks (FIG. 11B)): recovered to a level equivalent to that of the normal control
- Rota-rod test, time spent on the cylinder ([1]; MPTP mice, nasal 1 mg/kg daily for 2 weeks (FIG. 11C)): markedly recovered
- motor performance of normal mice administered CD1-012 alone compared to untreated normal control (toxicity) ([1]; normal mice, CD1-012 alone): no significant difference in motor performance
- mitophagy-promoting activity compared with CCCP (10 μM) ([2]; 20 μM, BEAS-2B, FACS (FIG. 8B)): mitophagy-promoting activity at a level similar to that of CCCP
- mitophagy-promoting activity when PINK1 gene expression was inhibited ([2]; 20 μM, shPINK1 BEAS-2B, FACS (FIG. 8B)): mitophagy-promoting activity was not inhibited
- mitophagy activation in PINK1 knockdown cell line (shPINK1) compared to control cell line (shNT) ([2]; CCCP 10 μM, CD1-012 15 μM, 18 hours (FIG. 7)): did not show a significant difference
- mitochondrial ATP production (reduced in PINK1-deficient cells) (PINK1-deficient MEFs; analyzed 4 days later (FIG. 8E)): restored
- level of mitochondrial ROS (elevated in PINK1-deficient cells) (PINK1-deficient MEFs; analyzed 4 days later, MitoSOX-Red (FIG. 8D)): reduced
- mitochondrial membrane potential (decreased in PINK1-deficient cells) (PINK1-deficient MEFs; analyzed 4 days later, TMRM (FIG. 8C)): restored
- mitochondrial ROS in brain tissue (DCF-DA staining) ([3]; 1 mM for 2 weeks (FIG. 9B)): significantly inhibited
- number of damaged mitochondria (abnormally swollen morphology) in dopaminergic neurons compared to untreated control ([3]; 1 mM for 2 weeks, brain tissue (FIG. 9A)): reduced
- ATP production capacity of brain tissue ([3]; 2 weeks of administration (FIG. 9C)): restored
- mitophagy activity compared to the control group (Con) (SH-SY5Y cell line): significantly increased mitophagy activity
- Cox2 protein level [4]: significantly decreased
